Laboratory results from US20080200724A1, “Process and Compound” (NPIL Pharmaceuticals (UK) Ltd, priority 2005, published 2008).

Tests used:
[1] = in propan-1-ol at 60° C.
Source text: In addition to methanol, other lower aliphatic alcohols were investigated. The solubility of BOC-protected 2R,3S—N-isobutyl-N-(2-hydroxy-3-amino-4-phenylbutyl)-p-nitrobenzene-sulfonylamide in propan-1-ol, propan-2-ol or butan-1-ol is too low to offer an economically viable process. […] The solubility of BOC-protected 2R,3S—N-isobutyl-N-(2-hydroxy-3-amino-4-phenylbutyl)-p-nitrobenzene-sulfonylamide in ethanol is better than that in C3 and C4-alcohols, but is still lower than the solubility in methanol. […] Similarly, acetone and 2-pentanone yield small acicular crystals.

[2] = solvent mixtures comprising methanol and one or more of toluene or ethyl acetate, typically
Method: The upper and lower concentration values are therefore dependent on the solubility characteristics of the material and the solvent mixture of choice. […] Therefore, for a crystallisation regime starting at 60° C. and ending at 0° C., a saturated or partially saturated solution in methanol and toluene, ethyl acetate admixtures, the concentration of BOC-protected 2R,3S—N-isobutyl-N-(2-hydroxy-3-amino-4-phenylbutyl)-p-nitrobenzene-sulfonylamide is in the range from 0.3 to 24% w/w.

## CC(C)CN(C[C@@H](O)[C@H](Cc1ccccc1)NC(=O)OC(C)(C)C)S(=O)(=O)c1ccc([N+](=O)[O-])cc1 [BOC-protected 2R,3S—N-isobutyl-N-(2-hydroxy-3-amino-4-phenylbutyl)-p-nitrobenzene-sulfonylamide]
[1]
  solubility: less than 3 % w/w
[2]; 60° C.
  maximum solubility achievable: 24 % w/w
[2]; end-point temperature of 0° C.
  lower solubility value: 0.3 % w/w
